The text below walks through data of patent US20260137091A1, “NEW PEPTIDES AND THE USE OF SAME FOR MODULATING ACCUMULATION OF A PROTEIN” (priority 2022, published 2026).

The subject of this experiment is NSP1-GUS fusion protein. In words: Quantification of GUS activity in roots expressing an NSP1-GUS fusion after cPEP treatment. It counts as in vivo. Conditions: Medicago truncatula transformed roots; treatment for 5 days with 0.1 μM cPEP by spraying; versus control (water). The protocol:
The y-axis represents the quantification of GUS activity in the roots of an NSP1-GUS fusion in response to treatment for 5 days with 0.1 μM of a cPEP targeting the 5′UTR region of the NSP1 gene. Error bars represent SEM, asterisks indicate a significant difference between test condition and control according to Student's t-test (n=30, p<0.05).
NSP1::GUS fusion was achieved, using a modified pCambia vector (Lauressergues et al., Nature, 520: 90-3, 2015), by cloning 3 kb of NSP1 promoter, the NSP1 gene coding sequence, the GUS protein coding sequence and 3 kb of the NSP1 gene downstream sequence (FIG. 2).
Root transformation of M. truncatula was carried out using the method described in Boisson-Dernier et al, Mol Plant Microbe Interact, 14(6): 695-700, 2001.
Plants were treated by spraying with a solution containing a low concentration of cPEPs (from 0.1 μM to 10 μM) or with water.
The accumulation of the protein targeted by cPEP was then measured in each plant by quantifying GUS activity or by quantifying protein activity by Western blot (Blizquez M., Quantitative GUS activity assay in intact plant tissue, Cold Spring Harbor Laboratory Press, Cold Spring Harbor, NY, USA, 2002).

On to “SEQ ID NO: 164: cPEP (10 amino acids) translated from a 30 nucleotide fragment of the 3′UTR of NSP1 pre-mRNA, +2 reading frame (CHHDEVISPQ; NSP1-3UTR)”, for which the “accumulation of the NSP1 protein (quantification of GUS activity in the roots of an NSP1-GUS fusion)” value is reported as “increase in the accumulation of the NSP1 protein”. The entry for “SEQ ID NO: 162: cPEP (11 amino acids) translated from a fragment of the 5′UTR of NSP1 pre-mRNA, +3 reading frame (KPFKFSSSISH; NSP1-5UTR-11)” is “increase in the accumulation of the NSP1 protein”.
